Source: patent publication US10729684B2, “Alkynyl dihydroquinoline sulfonamide compounds” (AMGEN INC., priority 2015, dated 2020)

Key:
[1] = molecular target: human PXR (Homo sapiens (Human), UniProt O75469); test: human PXR @ 2 uM POC
[2] = RLM in vitro; conditions: b278 calls it HLM data in vitro
[3] = molecular target: hNav1.7 (Homo sapiens (Human), UniProt Q15858); test: Nav 1.7 IWQ in vitro assay (IonWorks Quattro population patch-clamp); format: cell-based; conditions: HEK 293 cells stably transfected with Nav 1.7
Procedure: Nav 1.7 or Nav 1.5 IWQ In Vitro Assay
HEK 293 Cells stably transfected with either Nav 1.7 or Nav 1.5 were recorded in population patch-clamp mode with the IonWorks® Quattro automated electrophysiology system in accordance with the manufacturer's specifications (Molecular Devices, LLC, Sunnyvale, Calif.). Sodium channel currents were measured in response to a train of depolarizations that induced successively greater inactivation.
Cells were held at −110 mV for three seconds (Nav 1.7) or half a second (Nav 1.5) from a holding voltage of −15 mV, then put through a series of 26 pulses of 150 msec duration to −20 mV at a frequency of 5 Hz. Cells were then left unclamped for a period of 3 to 8 minutes while a single concentration of test compound was added. Cells were then reclamped and put through the same voltage protocol. Current at the end of the 26th pulse to −20 mV was subtracted from the peak current evoked by the 26th pulse to −20 mV to correct for leak current. Percent block was calculated for each concentration in duplicate, and IC50 curves were fitted to percent block as a function of concentration.

[4] = molecular target: human Nav1.7 (Homo sapiens (Human), UniProt Q15858); test: Nav 1.7 in vitro PX assay (PatchXpress whole cell voltage clamp); format: cell-based; conditions: HEK 293 cells stably transfected with human Nav1.7, partially inactivated state, read-out: hNav1.7 PX IC50
Procedure: Nav 1.7 In Vitro PX Assay
HEK 293 cells stably transfected with human Nav1.7 were recorded in whole cell voltage clamp mode with the PatchXpress automated electrophysiology system (Molecular Devices, LLC, Sunnyvale, Calif.). Compound effects were measured on a partially inactivated state of the sodium channel. Cells were clamped to a holding potential yielding 20 to 50% inactivation. To elicit sodium current, channels were activated by pulsing to −10 mV for 20 msec. This voltage protocol was repeated at a rate of 0.1 Hz throughout the experiment. A single concentration of test compound was applied to cells for a duration of 3 minutes. Peak sodium current was measured at the end of the compound addition period to determine percent inhibition. Three to five cells were tested per concentration, and IC50 curves were fitted to percent inhibition as a function of concentration.

human PXR, sequence (O75469 whole entry): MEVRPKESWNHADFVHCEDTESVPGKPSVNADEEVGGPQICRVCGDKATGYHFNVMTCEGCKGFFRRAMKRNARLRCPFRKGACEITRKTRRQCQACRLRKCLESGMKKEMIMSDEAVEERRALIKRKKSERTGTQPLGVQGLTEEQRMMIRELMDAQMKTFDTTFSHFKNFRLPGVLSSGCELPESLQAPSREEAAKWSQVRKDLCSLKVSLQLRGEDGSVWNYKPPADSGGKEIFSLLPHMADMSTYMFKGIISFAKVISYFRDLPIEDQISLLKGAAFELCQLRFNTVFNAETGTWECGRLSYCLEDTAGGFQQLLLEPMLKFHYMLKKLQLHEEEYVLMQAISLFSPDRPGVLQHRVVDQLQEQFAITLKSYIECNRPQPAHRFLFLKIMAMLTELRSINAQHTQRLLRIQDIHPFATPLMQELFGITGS
hNav1.7, sequence (Q15858 whole entry): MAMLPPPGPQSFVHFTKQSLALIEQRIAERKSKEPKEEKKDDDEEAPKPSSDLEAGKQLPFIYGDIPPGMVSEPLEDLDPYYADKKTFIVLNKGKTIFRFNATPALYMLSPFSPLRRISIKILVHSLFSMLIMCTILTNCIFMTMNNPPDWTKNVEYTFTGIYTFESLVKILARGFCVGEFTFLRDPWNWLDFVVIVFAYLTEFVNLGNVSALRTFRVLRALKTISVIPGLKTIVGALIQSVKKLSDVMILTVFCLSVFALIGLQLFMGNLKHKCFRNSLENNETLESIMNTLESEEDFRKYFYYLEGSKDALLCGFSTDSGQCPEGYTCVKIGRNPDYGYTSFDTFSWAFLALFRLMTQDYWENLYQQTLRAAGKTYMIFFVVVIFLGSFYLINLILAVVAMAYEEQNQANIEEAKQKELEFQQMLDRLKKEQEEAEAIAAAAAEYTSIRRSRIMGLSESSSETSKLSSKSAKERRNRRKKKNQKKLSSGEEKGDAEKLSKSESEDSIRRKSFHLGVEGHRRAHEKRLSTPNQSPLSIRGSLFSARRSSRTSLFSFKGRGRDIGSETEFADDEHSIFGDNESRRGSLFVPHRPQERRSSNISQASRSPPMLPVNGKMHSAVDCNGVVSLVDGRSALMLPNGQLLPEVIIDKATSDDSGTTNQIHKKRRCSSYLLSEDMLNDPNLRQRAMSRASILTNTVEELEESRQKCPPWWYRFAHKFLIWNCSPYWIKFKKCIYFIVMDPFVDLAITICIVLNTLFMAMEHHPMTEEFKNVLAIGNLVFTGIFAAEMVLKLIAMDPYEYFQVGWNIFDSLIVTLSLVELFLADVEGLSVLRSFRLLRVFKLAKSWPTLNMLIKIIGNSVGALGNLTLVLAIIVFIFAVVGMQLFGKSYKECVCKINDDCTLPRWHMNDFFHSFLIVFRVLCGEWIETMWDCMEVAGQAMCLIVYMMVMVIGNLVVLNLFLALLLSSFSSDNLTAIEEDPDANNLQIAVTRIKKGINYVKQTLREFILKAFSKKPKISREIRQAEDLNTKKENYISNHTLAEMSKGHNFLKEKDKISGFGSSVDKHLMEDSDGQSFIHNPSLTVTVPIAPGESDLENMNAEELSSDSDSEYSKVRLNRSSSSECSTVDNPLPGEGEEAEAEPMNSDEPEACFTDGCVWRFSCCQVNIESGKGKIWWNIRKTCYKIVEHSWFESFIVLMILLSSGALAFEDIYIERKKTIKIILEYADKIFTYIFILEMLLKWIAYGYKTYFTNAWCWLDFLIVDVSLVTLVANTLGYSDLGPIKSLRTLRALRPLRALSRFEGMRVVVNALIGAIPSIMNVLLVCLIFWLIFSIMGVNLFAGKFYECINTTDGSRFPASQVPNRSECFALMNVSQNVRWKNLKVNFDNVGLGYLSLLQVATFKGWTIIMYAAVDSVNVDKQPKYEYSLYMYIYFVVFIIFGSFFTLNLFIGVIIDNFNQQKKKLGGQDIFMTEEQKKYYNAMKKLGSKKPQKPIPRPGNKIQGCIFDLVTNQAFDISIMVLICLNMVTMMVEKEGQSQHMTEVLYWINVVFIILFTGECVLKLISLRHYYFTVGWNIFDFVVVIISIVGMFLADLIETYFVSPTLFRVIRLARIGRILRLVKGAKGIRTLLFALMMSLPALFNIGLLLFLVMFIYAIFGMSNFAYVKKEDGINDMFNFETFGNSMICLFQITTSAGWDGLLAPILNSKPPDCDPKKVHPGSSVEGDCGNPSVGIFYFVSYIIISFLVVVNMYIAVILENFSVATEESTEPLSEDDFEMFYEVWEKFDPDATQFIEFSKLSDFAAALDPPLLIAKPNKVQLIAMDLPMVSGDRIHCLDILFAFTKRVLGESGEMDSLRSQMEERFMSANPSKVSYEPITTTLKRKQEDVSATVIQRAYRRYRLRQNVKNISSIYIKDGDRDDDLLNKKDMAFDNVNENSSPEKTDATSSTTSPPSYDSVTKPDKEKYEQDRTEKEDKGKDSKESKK
human Nav1.7, sequence (Q15858 whole entry): as above

In the case of `COc1cc(C#CC2CCC(F)(F)CC2)c(F)cc1-n1c(=O)ccc2cc(S(=O)(=O)Nc3ccon3)ccc21` (atropisomer, axis not shown; (P)) [Example 1, (P)-1-(4-((4,4-difluorocyclohexyl)ethynyl)-5-fluoro-2-methoxyphenyl)-N-(isoxazol-3-yl)-2-oxo-1,2-dihydroquinoline-6-sulfonamide], the “human PXR @ 2 uM POCS” value [1] is reported as 2.36%, the RLM in vitro [2] is reported as under 14.0 µL/min/mg and the IC50 [3] is reported as 3.3 nM.
With `COc1cc(C#CC(C)(C)C(F)(F)F)c(F)cc1-n1c(=O)ccc2cc(S(=O)(=O)Nc3ccon3)ccc21` (atropisomer, axis not shown; (P)) [Example 2, (P)-1-(5-fluoro-2-methoxy-4-(4,4,4-trifluoro-3,3-dimethylbut-1-yn-1-yl)phenyl)-N-(isoxazol-3-yl)-2-oxo-1,2-dihydroquinoline-6-sulfonamide] the “human PXR @ 2 uM POCS” value [1] was 1.38%, the RLM in vitro [2] was under 14.0 µL/min/mg and the IC50 [3] was 1.2 nM.
With `COc1cc(C#CC2CCCC2)ccc1-n1c(=O)ccc2cc(S(=O)(=O)Nc3ccon3)ccc21` (atropisomer, axis not shown; (P)) [Example 3, (P)-1-(4-(cyclopentylethynyl)-2-methoxyphenyl)-N-(isoxazol-3-yl)-2-oxo-1,2-dihydroquinoline-6-sulfonamide] the “human PXR @ 2 uM POCS” value [1] was −1.44%, the RLM in vitro [2] was 39 µL/min/mg and the IC50 [3] was 7.5 nM. It also gave an IC50 [4] of 49.7 nM.
With `COc1cc(C#C[C@H]2C[C@@H]2C(F)(F)F)c(F)cc1-n1c(=O)ccc2cc(S(=O)(=O)Nc3ccon3)ccc21` (atropisomer, axis not shown; (P)) [Example 4, (P)-1-(5-fluoro-2-methoxy-4-((2-(trifluoromethyl)cyclopropyl)ethynyl)phenyl)-N-(isoxazol-3-yl)-2-oxo-1,2-dihydroquinoline-6-sulfonamide] the “human PXR @ 2 uM POCS” value [1] was 13.54% and the RLM in vitro [2] was under 14.0 µL/min/mg.
In the case of `COc1cc(C#CC2(C(F)(F)F)CC2)c(F)cc1-n1c(=O)ccc2cc(S(=O)(=O)Nc3ccon3)ccc21` (atropisomer, axis not shown; (P)) [Example 5, (P)-1-(5-fluoro-2-methoxy-4-((1-(trifluoromethyl)cyclopropyl)ethynyl)phenyl)-N-(isoxazol-3-yl)-2-oxo-1,2-dihydroquinoline-6-sulfonamide], the “human PXR @ 2 uM POCS” value [1] is reported as 1.73% and the RLM in vitro [2] is reported as under 14.0 µL/min/mg.
With `COc1cc(C#CC2CCCC2)c(Cl)cc1-n1c(=O)ccc2cc(S(=O)(=O)Nc3ccon3)ccc21` (atropisomer, axis not shown; (P)) [Example 6, (P)-1-(5-chloro-4-(cyclopentylethynyl)-2-methoxyphenyl)-N-(isoxazol-3-yl)-2-oxo-1,2-dihydroquinoline-6-sulfonamide] the “human PXR @ 2 uM POCS” value [1] was −3.96% and the RLM in vitro [2] was 58 µL/min/mg.
In the case of `COc1cc(C#CC2CCCC(F)(F)C2)c(F)cc1-n1c(=O)ccc2cc(S(=O)(=O)Nc3ccon3)ccc21` (atropisomer, axis not shown; (P)) [Example 7, (P) 1-(4-((3,3-difluorocyclohexyl)ethynyl)-5-fluoro-2-methoxyphenyl)-N-(isoxazol-3-yl)-2-oxo-1,2-dihydroquinoline-6-sulfonamide], the “human PXR @ 2 uM POCS” value [1] is reported as −0.78% and the RLM in vitro [2] is reported as under 14.0 µL/min/mg.
For `COc1cc(C#CC2CCCC2)c(F)cc1-n1c(=O)ccc2cc(S(=O)(=O)Nc3ccon3)ccc21` (atropisomer, axis not shown; (P)) [Example 10, (P)-1-(4-(cyclopentylethynyl)-5-fluoro-2-methoxyphenyl)-N-3-isoxazolyl-2-oxo-1,2-dihydro-6-quinoline Sulfonamide], the “human PXR @ 2 uM POCS” value [1] was 2.94% and the RLM in vitro [2] was 39.8 µL/min/mg.
`COc1cc(C#CC2CCCC(F)(F)C2)c(F)cc1-n1c(=O)ccc2cc(S(=O)(=O)Nc3ccon3)ccc21` (racemic) [Example 7, (P) 1-(4-((3,3-difluorocyclohexyl)ethynyl)-5-fluoro-2-methoxyphenyl)-N-(isoxazol-3-yl)-2-oxo-1,2-dihydroquinoline-6-sulfonamide] showed an IC50 [3] of 7.8 nM.
For `COc1cc(C#C[C@@H]2C[C@@H]2C(F)(F)F)c(F)cc1-n1c(=O)ccc2cc(S(=O)(=O)Nc3ccon3)ccc21` (single isomer, unassigned) [Example 4A], the “human PXR @ 2 uM POCS” value [1] was 23.19%, the RLM in vitro [2] was under 14.0 µL/min/mg and the IC50 [3] was 6.8 nM.
`COc1cc(C#C[C@H]2C[C@@H]2C(F)(F)F)c(F)cc1-n1c(=O)ccc2cc(S(=O)(=O)Nc3ccon3)ccc21` (stereo in doubt) [Example 4, (P)-1-(5-fluoro-2-methoxy-4-((2-(trifluoromethyl)cyclopropyl)ethynyl)phenyl)-N-(isoxazol-3-yl)-2-oxo-1,2-dihydroquinoline-6-sulfonamide] gave an IC50 [3] of 7 nM.
For `COc1cc(C#C[C@@H]2C[C@H]2C(F)(F)F)c(F)cc1-n1c(=O)ccc2cc(S(=O)(=O)Nc3ccon3)ccc21` (stereo in doubt) [Example 4B, 1-(5-fluoro-2-methoxy-4-(((1R,2R)-2-(trifluoromethyl)cyclopropyl)ethynyl)phenyl)-N-3-isoxazolyl-2-oxo-1,2-dihydro-6-quinolinesulfonamide], the “human PXR @ 2 uM POCS” value [1] was −3.81%, the RLM in vitro [2] was under 14.0 µL/min/mg and the IC50 [3] was 5.5 nM.
With `COc1cc(C#CC2CCCC2)c(F)cc1-n1c(=O)ccc2cc(S(=O)(=O)Nc3cccnn3)ccc21` [Example 9] the “human PXR @ 2 uM POCS” value [1] was 11.80%, the RLM in vitro [2] was 32.2 µL/min/mg and the IC50 [3] was 8.95 nM. The IC50 [4] was 19.3 nM.
